Like-named read-outs stand apart in the source and are kept apart here.
System: C. parvum
Assay: In vitro inhibition of C. parvum development in HCT-8 cells
Format: cell-based
Conditions: Cryptosporidium parvum
[1] = HCT-8 cells, Table 4, read-out: EC50 for inhibition of C. parvum development in HCT-8 cells
[2] = average EC50, C. parvum in HCT-8 cells, read-out: Cp HTC-8 Avg EC50

Row | EC50 [1] | EC50 [2] | Compound
1 | > 25 µM |  | O=C(Cc1ccccc1Cl)N1CCN(c2ccc3nncn3n2)CC1 [Example 2178, 2-(2-chlorophenyl)-1-(4-{[1,2,4]triazolo[4,3-b]pyridazin-6-yl}piperazin-1-yl)ethan-1-one]
2 | 0.53 µM | 0.53 µM | O=C(Cc1ccc(Cl)c(F)c1)N1CCN(c2ccc3nncn3n2)CC1 [Example 2631, 2-(4-chloro-3-fluorophenyl)-1-(4-{[1,2,4]triazolo[4,3-b]pyridazin-6-yl}piperazin-1-yl)ethan-1-one]
3 | 0.99 µM | 0.99 µM | O=C(Cc1cc(Cl)cc(Cl)c1)N1CCN(c2ccc3nncn3n2)CC1 [Example 2747, 2-(3,5-dichlorophenyl)-1-(4-{[1,2,4]triazolo[4,3-b]pyridazin-6-yl}piperazin-1-yl)ethan-1-one]
4 | 2.58 µM |  | O=C(Cc1ccc([N+](=O)[O-])cc1)N1CCN(c2ccc3nncn3n2)CC1 [Example 2755, 2-(4-nitrophenyl)-1-(4-{[1,2,4]triazolo[4,3-b]pyridazin-6-yl}piperazin-1-yl)ethan-1-one]
5 | 0.24 µM | 0.238 µM | O=C(Cc1ccc(F)c(Cl)c1)N1CCN(c2ccc3nncn3n2)CC1 [Example 2763, 2-(3-chloro-4-fluorophenyl)-1-(4-{[1,2,4]triazolo[4,3-b]pyridazin-6-yl}piperazin-1-yl)ethan-1-one]
6 | 8.33 µM |  | O=C(N1CCN(c2ccc3nncn3n2)CC1)C1(c2ccc(Cl)c(Cl)c2)CC1 [Example 2766, 1-[1-(3,4-dichlorophenyl)cyclopropanecarbonyl]-4-{[1,2,4]triazolo[4,3-b]pyridazin-6-yl}piperazine]
7 | 1.12 µM |  | O=C(Cc1ccc(Br)cc1)N1CCN(c2ccc3nncn3n2)CC1 [Example 2767, 2-(4-bromophenyl)-1-(4-{[1,2,4]triazolo[4,3-b]pyridazin-6-yl}piperazin-1-yl)ethan-1-one]
8 | > 25 µM |  | O=C(Cc1ccc(COn2nnc3ccccc32)cc1)N1CCN(c2ccc3nncn3n2)CC1 [Example 2796, 2-{4-[(1H-1,2,3-benzotriazol-1-yloxy)methyl]phenyl}-1-(4-{[1,2,4]triazolo[4,3-b]pyridazin-6-yl}piperazin-1-yl)ethan-1-one]
9 | > 25 µM |  | O=C(Cc1cccc(Cl)c1Cl)N1CCN(c2ccc3nncn3n2)CC1 [Example 2798, 2-(2,3-dichlorophenyl)-1-(4-{[1,2,4]triazolo[4,3-b]pyridazin-6-yl}piperazin-1-yl)ethan-1-one]
10 | 30 µM |  | Cc1nnc2ccc(N3CCN(C(=O)Cc4ccc(Cl)c(Cl)c4)CC3)nn12 [Example 2808, 2-(3,4-dichlorophenyl)-1-(4-{3-methyl-[1,2,4]triazolo[4,3-b]pyridazin-6-yl}piperazin-1-yl)ethan-1-one]
11 | > 25 µM |  | O=C(Cc1ccc(-c2ccccc2)cc1)N1CCN(c2ccc3nncn3n2)CC1 [Example 2809, 2-{[1,1′-biphenyl]-4-yl}-1-(4-{[1,2,4]triazolo[4,3-b]pyridazin-6-yl}piperazin-1-yl)ethan-1-one]
12 | 29 µM |  | O=C(Cc1ccc(Cl)c(Cl)c1)N1CCN(c2ccc3nnc(C(F)(F)F)n3n2)CC1 [Example 2810, 2-(3,4-dichlorophenyl)-1-{4-[3-(trifluoromethyl)-[1,2,4]triazolo[4,3-b]pyridazin-6-yl]piperazin-1-yl}ethan-1-one]
13 | 12.8 µM |  | CC(C)(C)OC(=O)NCC#Cc1ccc(CC(=O)N2CCN(c3ccc4nncn4n3)CC2)cc1 [Example 2811, Tert-butyl N-(3-{4-[2-oxo-2-(4-{[1,2,4]triazolo[4,3-b]pyridazin-6-yl}piperazin-1-yl)ethyl]phenyl}prop-2-yn-1-yl)carbamate]
14 | 0.883 µM | 0.883 µM | C#Cc1ccc(CC(=O)N2CCN(c3ccc4nncn4n3)CC2)cc1 [Example 10046, 2-(4-ethynylphenyl)-1-(4-{[1,2,4]triazolo[4,3-b]pyridazin-6-yl}piperazin-1-yl)ethan-1-one]

Further lines, the molecule ahead of its results:

Row | Compound | EC50 [1] | EC50 [2]
15 | O=C(Cc1cccc2ccccc12)N1CCN(c2ccc3nncn3n2)CC1 [Example 2257, 2-(naphthalen-1-yl)-1-(4-{[1,2,4]triazolo[4,3-b]pyridazin-6-yl}piperazin-1-yl)ethan-1-one] | 17.1 µM | 
16 | O=C(Cc1ccc(F)cc1)N1CCN(c2ccc3nncn3n2)CC1 [Example 2632, 2-(4-fluorophenyl)-1-(4-{[1,2,4]triazolo[4,3-b]pyridazin-6-yl}piperazin-1-yl)ethan-1-one] | 1.18 µM | 
17 | O=C(Cc1ccc(Cl)cc1)N1CCN(c2ccc3nncn3n2)CC1 [Example 2634, 2-(4-chlorophenyl)-1-(4-{[1,2,4]triazolo[4,3-b]pyridazin-6-yl}piperazin-1-yl)ethan-1-one] |  | 0.88 µM
18 | O=C(Cc1c(Cl)cccc1Cl)N1CCN(c2ccc3nncn3n2)CC1 [Example 2720, 2-(2,6-dichlorophenyl)-1-(4-{[1,2,4]triazolo[4,3-b]pyridazin-6-yl}piperazin-1-yl)ethan-1-one] | > 25 µM | 
19 | O=C(Cc1ccc(Cl)cc1Cl)N1CCN(c2ccc3nncn3n2)CC1 [Example 2721, 2-(2,4-dichlorophenyl)-1-(4-{[1,2,4]triazolo[4,3-b]pyridazin-6-yl}piperazin-1-yl)ethan-1-one] | > 25 µM | 
20 | O=C(Cc1cc(Cl)ccc1Cl)N1CCN(c2ccc3nncn3n2)CC1 [Example 2746, 2-(2,5-dichlorophenyl)-1-(4-{[1,2,4]triazolo[4,3-b]pyridazin-6-yl}piperazin-1-yl)ethan-1-one] | 33 µM | 
21 | O=C(Cc1ccc2ccccc2c1)N1CCN(c2ccc3nncn3n2)CC1 [Example 2749, 2-(naphthalen-2-yl)-1-(4-{[1,2,4]triazolo[4,3-b]pyridazin-6-yl}piperazin-1-yl)ethan-1-one] | 12.4 µM | 
22 | CC1CN(c2ccc3nncn3n2)CCN1C(=O)Cc1ccc(Cl)c(Cl)c1 (stereo not drawn) [Example 2752, 2-(3,4-dichlorophenyl)-1-(2-methyl-4-{[1,2,4]triazolo[4,3-b]pyridazin-6-yl}piperazin-1-yl)ethan-1-one] | 7.44 µM | 
23 | Cc1ccc(CC(=O)N2CCN(c3ccc4nncn4n3)CC2)cc1Cl [Example 2756, 2-(3-chloro-4-methylphenyl)-1-(4-{[1,2,4]triazolo[4,3-b]pyridazin-6-yl}piperazin-1-yl)ethan-1-one] | 1.26 µM | 
24 | Cc1ccc(CC(=O)N2CCN(c3ccc4nncn4n3)CC2)cc1F [Example 2757, 2-(3-fluoro-4-methylphenyl)-1-(4-{[1,2,4]triazolo[4,3-b]pyridazin-6-yl}piperazin-1-yl)ethan-1-one] | 5.56 µM | 
25 | Cc1cc(CC(=O)N2CCN(c3ccc4nncn4n3)CC2)ccc1Cl [Example 2758, 2-(4-chloro-3-methylphenyl)-1-(4-{[1,2,4]triazolo[4,3-b]pyridazin-6-yl}piperazin-1-yl)ethan-1-one] | 0.292 µM | 0.279 µM
26 | Cc1cc(CC(=O)N2CCN(c3ccc4nncn4n3)CC2)ccc1F [Example 2759, 2-(4-fluoro-3-methylphenyl)-1-(4-{[1,2,4]triazolo[4,3-b]pyridazin-6-yl}piperazin-1-yl)ethan-1-one] | 0.335 µM | 0.353 µM
27 | O=C(Cc1cccc(Br)c1)N1CCN(c2ccc3nncn3n2)CC1 [Example 2760, 2-(3-bromophenyl)-1-(4-{[1,2,4]triazolo[4,3-b]pyridazin-6-yl}piperazin-1-yl)ethan-1-one] | 2.29 µM | 
28 | COc1ccc(CC(=O)N2CCN(c3ccc4nncn4n3)CC2)cc1 [Example 2761, 2-(4-methoxyphenyl)-1-(4-{[1,2,4]triazolo[4,3-b]pyridazin-6-yl}piperazin-1-yl)ethan-1-one] | 16.4 µM | 
29 | COc1cccc(CC(=O)N2CCN(c3ccc4nncn4n3)CC2)c1 [Example 2762, 2-(3-methoxyphenyl)-1-(4-{[1,2,4]triazolo[4,3-b]pyridazin-6-yl}piperazin-1-yl)ethan-1-one] | 16.4 µM | 
30 | O=C(Cc1cccc(Cl)c1)N1CCN(c2ccc3nncn3n2)CC1 [Example 2764, 2-(3-chlorophenyl)-1-(4-{[1,2,4]triazolo[4,3-b]pyridazin-6-yl}piperazin-1-yl)ethan-1-one] | 3.61 µM | 
31 | O=C(C(=O)N1CCN(c2ccc3nncn3n2)CC1)c1ccc(Cl)c(Cl)c1 [Example 2765, 1-(3,4-dichlorophenyl)-2-(4-{ [1,2,4]triazolo[4,3-b]pyridazin-6-yl}piperazin-1-yl)ethane-1,2-dione] | 2.25 µM | 
32 | N#Cc1ccc(CC(=O)N2CCN(c3ccc4nncn4n3)CC2)cc1 [Example 2797, 4-[2-oxo-2-(4-{[1,2,4]triazolo[4,3-b]pyridazin-6-yl}piperazin-1-yl)ethyl]benzonitrile] | 11 µM | 
33 | O=C(N1CCN(c2ccc3nncn3n2)CC1)C(F)(F)c1ccc(Cl)c(Cl)c1 [Example 2799, 2-(3,4-dichlorophenyl)-2,2-difluoro-1-(4-{[1,2,4]triazolo[4,3-b]pyridazin-6-yl}piperazin-1-yl)ethan-1-one] | 2.3 µM | 
34 | O=C(Cc1ccc(F)c(F)c1)N1CCN(c2ccc3nncn3n2)CC1 [Example 2800, 2-(3,4-difluorophenyl)-1-(4-{[1,2,4]triazolo[4,3-b]pyridazin-6-yl}piperazin-1-yl)ethan-1-one] | 0.76 µM | 0.76 µM
35 | O=C(Cc1ccc(Cl)c(Cl)c1)N1CCN(c2ccc3nnc(-c4ccccc4)n3n2)CC1 [Example 2807, 2-(3,4-dichlorophenyl)-1-(4-{3-phenyl-[1,2,4]triazolo[4,3-b]pyridazin-6-yl}piperazin-1-yl)ethan-1-one] | 15 µM | 
36 | O=C(Cc1ccc(CN2CCOCC2)cc1)N1CCN(c2ccc3nncn3n2)CC1 [Example 2817, 2-{4-[(Morpholin-4-yl)methyl]phenyl}-1-(4-{[1,2,4]triazolo[4,3-b]pyridazin-6-yl}piperazin-1-yl)ethan-1-one] | > 25 µM | 
37 | O=C(Cc1ccc(CO)cc1)N1CCN(c2ccc3nncn3n2)CC1 [Example 2818] | > 25 µM | 
38 | O=C(Cc1ccccc1)N1CCN(c2ccc3nncn3n2)CC1 [Example 2819, 2-phenyl-1-(4-{[1,2,4]triazolo[4,3-b]pyridazin-6-yl}piperazin-1-yl)ethan-1-one] | 22 µM | 

— US20230212172A1, “ARYLACETAMIDE ANALOGS OF PIPERAZINE-[1,2,4]TRIAZOLO[4,3-B]PYRIDAZINES” (University of Vermont and State Agricultural College, priority 2020, published 2023)
